Data on 16 compounds can be found in ChEMBL document CHEMBL1201862, “PubChem BioAssay data set” (2004).

The source made the active and inactive calls. Bounds are passed on as bounds.

In general, AC50 refers to the concentration at which the activity in the assay is half-maximal. For orientation: EC50 means the concentration that produces a half-maximal response.

Test [1] is described as follows: intracellular Trypanosoma cruzi inhibitors in host cells – cell-based, plate reader, cherry-pick samples, set 3, dose response (AID 651818).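 Note: compounds incubated with infected cells for about four days.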 It counts as functional.
For test [2], the system named is Streptococcus sp. 'group A'. Kind of test: Streptococcus pyogenes SK(-)GAS viability under kanamycin – luminescence, BacTiterGlo, confirmation, counter-screen for streptokinase expression inhibitor project, dose response (AID 1900). It counts as functional, organism-based.
Test [3] relates to Streptococcus. Kind of test: GAS UMAA2166 growth inhibition – luminescence, BacTiterGlo, counter-screen for streptokinase expression inhibitor project, dose response (AID 1915).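 Note: potency for reduction of bacterial viability or growth.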 It counts as functional, organism-based.
Test [4] deals with T1, Caspase-3 (Homo sapiens, UniProt P42574).
T1 sequence (P42574 whole entry): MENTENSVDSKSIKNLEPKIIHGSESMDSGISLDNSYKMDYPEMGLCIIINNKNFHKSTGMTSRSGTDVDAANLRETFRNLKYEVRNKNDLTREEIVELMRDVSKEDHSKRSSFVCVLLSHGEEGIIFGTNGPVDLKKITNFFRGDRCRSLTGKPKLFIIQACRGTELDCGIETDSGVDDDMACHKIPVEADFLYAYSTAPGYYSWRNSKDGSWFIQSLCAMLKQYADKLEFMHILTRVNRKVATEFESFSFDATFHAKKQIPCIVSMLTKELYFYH
Format: functional.

Test [5] addresses T2, Sentrin-specific protease 7 (Homo sapiens, UniProt Q9BQF6).
T2 sequence (Q9BQF6 whole entry): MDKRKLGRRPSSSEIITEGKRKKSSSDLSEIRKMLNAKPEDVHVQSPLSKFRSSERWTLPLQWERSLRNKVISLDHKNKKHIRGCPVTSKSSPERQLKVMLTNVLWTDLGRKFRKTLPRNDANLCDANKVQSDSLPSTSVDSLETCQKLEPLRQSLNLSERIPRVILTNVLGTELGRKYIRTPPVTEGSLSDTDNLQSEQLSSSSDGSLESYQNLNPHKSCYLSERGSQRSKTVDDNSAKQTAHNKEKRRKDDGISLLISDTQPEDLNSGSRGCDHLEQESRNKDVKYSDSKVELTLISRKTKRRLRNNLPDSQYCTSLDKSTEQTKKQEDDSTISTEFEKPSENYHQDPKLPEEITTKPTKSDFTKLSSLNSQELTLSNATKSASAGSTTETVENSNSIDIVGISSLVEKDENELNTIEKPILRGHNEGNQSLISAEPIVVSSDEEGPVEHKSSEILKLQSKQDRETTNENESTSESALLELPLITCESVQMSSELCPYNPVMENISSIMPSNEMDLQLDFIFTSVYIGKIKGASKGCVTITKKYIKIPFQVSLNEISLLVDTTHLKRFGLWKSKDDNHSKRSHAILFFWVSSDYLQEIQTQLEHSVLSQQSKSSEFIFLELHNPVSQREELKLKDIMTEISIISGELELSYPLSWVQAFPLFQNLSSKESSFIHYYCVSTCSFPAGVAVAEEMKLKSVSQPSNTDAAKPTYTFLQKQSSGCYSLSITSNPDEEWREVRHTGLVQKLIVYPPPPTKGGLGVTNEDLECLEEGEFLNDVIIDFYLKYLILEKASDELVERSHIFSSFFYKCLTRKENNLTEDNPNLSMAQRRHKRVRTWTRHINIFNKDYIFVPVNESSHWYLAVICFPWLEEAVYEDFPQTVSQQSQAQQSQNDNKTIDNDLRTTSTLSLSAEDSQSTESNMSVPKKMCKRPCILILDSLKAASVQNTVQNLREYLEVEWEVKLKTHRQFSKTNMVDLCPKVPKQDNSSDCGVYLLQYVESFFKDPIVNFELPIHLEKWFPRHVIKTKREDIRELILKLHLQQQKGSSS
Format: functional.

For test [6], the target named is T3, Sentrin-specific protease 6 (Homo sapiens, UniProt Q9GZR1).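 Note: Luminescence-based dose-response confirmatory assay of SENP6 inhibition, following up an ultra-high-throughput screen.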
T3 sequence (Q9GZR1 whole entry): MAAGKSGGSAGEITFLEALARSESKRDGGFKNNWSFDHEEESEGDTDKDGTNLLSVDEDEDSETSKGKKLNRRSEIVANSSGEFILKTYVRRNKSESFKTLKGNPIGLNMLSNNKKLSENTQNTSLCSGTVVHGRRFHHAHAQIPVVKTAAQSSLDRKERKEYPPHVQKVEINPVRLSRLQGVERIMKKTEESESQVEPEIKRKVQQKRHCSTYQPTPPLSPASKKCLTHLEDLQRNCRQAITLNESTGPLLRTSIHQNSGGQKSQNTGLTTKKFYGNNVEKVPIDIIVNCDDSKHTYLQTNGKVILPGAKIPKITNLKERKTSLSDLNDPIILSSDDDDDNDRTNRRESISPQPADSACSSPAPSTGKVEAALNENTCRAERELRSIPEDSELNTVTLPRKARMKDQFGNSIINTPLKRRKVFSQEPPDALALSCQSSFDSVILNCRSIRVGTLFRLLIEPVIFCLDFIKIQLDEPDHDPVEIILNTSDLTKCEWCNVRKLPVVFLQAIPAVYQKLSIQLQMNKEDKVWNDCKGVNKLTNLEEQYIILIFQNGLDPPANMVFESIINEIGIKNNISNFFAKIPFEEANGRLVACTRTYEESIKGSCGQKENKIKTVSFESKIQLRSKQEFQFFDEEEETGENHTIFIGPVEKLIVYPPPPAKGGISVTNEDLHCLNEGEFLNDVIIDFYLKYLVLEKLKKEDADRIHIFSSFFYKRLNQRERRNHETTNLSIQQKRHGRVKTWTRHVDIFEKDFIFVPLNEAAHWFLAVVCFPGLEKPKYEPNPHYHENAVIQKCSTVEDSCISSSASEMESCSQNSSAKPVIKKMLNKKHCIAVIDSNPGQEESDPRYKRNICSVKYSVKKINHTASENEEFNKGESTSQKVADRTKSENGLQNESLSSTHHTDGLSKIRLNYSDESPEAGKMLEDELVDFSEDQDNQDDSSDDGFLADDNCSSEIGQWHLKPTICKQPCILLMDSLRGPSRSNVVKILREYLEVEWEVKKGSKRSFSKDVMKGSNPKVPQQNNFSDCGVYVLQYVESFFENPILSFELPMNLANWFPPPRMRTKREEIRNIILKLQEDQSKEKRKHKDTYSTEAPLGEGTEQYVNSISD
Format: functional.

Test [7] has as its target T4, Sentrin-specific protease 8 (Homo sapiens, UniProt Q96LD8).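 Note: luminescence read-out of SENP8 inhibition, dose-response confirmation following an ultra-high-throughput screen.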
T4 sequence (Q96LD8 whole entry): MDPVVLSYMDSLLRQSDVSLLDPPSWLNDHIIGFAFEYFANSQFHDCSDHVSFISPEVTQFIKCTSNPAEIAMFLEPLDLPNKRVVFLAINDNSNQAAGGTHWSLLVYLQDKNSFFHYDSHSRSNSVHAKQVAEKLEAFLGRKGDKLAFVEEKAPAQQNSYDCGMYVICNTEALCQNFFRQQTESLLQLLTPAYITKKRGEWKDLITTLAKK
It counts as functional.

In test [8] the target is Nuclear receptor subfamily 5 group A member 2 (Homo sapiens, UniProt O00482). It counts as functional, cell-based.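 Note: HEK293T cells transfected with LRH-1 and a StAR promoter luciferase reporter; potency for inhibitors that lower LRH-1 driven reporter light.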
Sequence of Nuclear receptor subfamily 5 group A member 2 (O00482 whole entry): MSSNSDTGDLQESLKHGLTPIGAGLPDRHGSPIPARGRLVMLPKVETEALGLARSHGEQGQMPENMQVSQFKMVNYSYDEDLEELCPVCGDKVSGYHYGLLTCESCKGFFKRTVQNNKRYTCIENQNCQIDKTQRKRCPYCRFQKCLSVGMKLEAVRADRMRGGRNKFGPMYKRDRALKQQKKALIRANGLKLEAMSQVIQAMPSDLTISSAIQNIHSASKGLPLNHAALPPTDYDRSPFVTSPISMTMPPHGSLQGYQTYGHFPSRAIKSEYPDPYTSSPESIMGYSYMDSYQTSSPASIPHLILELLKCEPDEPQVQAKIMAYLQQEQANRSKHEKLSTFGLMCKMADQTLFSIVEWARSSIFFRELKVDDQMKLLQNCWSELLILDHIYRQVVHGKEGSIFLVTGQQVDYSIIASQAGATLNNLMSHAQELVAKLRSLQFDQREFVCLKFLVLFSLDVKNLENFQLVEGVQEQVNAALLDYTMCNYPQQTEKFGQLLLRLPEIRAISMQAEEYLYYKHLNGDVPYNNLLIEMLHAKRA
Test [9] concerns the target Steroidogenic factor 1 (Homo sapiens, UniProt Q13285). In words: Counterscreen for inverse agonists of the liver receptor homolog-1 (LRH-1; NR5A2): Luminescence-based cell-based high throughput dose response assay to identify inverse agonists of the Steroidogenic Factor 1 Nuclear Receptor (SF1; NR5A1). It counts as functional.
A short description of test [10]: nonselective StAR promoter luciferase inhibitors – cell-based, luminescence, luciferase reporter, counter-screen for LRH-1 inverse agonist project, dose response (AID 651969). It counts as functional. A general note: Reporter assays use an easily measured gene product as a stand-in for the process of interest.
For test [11], the target named is T5, Polyadenylate-binding protein 1 (Homo sapiens, UniProt P11940). In words: MLLE binding blockers, Cy5 peptide tracer – biochemical, fluorescence polarization, Cy5-PAM2 peptide, secondary, miRNA deadenylation inhibitor project, dose response (AID 602260). It counts as functional. Conditions: read-out: IC50_Mean. (Polarisation of emitted light reports the rotation of a fluorescent probe.)
T5 sequence (P11940 whole entry): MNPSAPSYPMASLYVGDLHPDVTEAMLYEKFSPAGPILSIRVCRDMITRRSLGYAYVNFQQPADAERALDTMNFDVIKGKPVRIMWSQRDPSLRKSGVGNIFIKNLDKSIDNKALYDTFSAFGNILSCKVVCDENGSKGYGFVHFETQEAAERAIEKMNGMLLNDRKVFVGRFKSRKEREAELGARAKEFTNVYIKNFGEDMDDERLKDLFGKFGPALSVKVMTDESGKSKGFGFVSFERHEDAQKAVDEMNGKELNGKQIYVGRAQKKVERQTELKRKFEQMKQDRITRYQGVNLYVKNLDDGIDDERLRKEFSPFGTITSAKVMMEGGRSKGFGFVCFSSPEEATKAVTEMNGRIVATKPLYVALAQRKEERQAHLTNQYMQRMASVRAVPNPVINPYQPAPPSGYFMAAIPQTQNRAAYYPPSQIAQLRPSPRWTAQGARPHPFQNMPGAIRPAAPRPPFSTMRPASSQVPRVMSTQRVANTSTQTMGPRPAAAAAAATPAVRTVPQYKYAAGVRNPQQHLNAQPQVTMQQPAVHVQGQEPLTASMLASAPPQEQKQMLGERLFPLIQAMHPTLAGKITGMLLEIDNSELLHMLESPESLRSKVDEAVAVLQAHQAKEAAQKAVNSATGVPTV

The target of test [12] is T5, Polyadenylate-binding protein 1. In words: MLLE domain peptide-binding blockers, IC50 – biochemical, fluorescence polarization, FITC-PAM2 peptide, dose response (AID 602259). It counts as functional. Conditions: read-out: IC50_Mean.
Test [13] in a line: HIV-1 AD8 envelope cell-cell fusion blockers – cherry-pick, dose response (AID 652062).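 Note: luciferase signal from cell-cell fusion driven by HIV-1 clade B AD8 Env; potency is for inhibitors of fusion seen as a drop in luminescence.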 It counts as functional, cell-based.
A short description of test [14]: blockers of HIV-1 envelope-mediated cell-cell fusion – cherry-pick, dose response (AID 652057). Format: functional, cell-based.
A short description of test [15]: blockers of HIV-1 ZM109 envelope-driven cell-cell fusion – HeLa effector, CEM target cells, luciferase, cherry-pick, dose response (AID 652058).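 Note: luciferase signal from HIV-1 Env mediated cell-cell fusion of effector and target cells.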 Format: functional, cell-based.
The target of test [16] is T6, Calpain-2 catalytic subunit (Sus scrofa, UniProt P43367).
T6 sequence (P43367 whole entry): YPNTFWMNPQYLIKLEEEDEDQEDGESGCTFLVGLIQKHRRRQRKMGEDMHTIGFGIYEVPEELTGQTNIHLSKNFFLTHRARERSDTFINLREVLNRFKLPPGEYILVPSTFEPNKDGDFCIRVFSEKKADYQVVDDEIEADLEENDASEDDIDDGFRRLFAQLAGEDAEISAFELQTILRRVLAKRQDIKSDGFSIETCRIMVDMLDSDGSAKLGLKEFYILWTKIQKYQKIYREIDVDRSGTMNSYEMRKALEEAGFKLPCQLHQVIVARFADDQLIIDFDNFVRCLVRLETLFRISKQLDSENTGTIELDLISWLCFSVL
Kind of test: m-calpain protease blockers, concentration series – biochemical, fluorogenic peptide substrate, dose response (AID 1420). Format: functional.

Sequence of Steroidogenic factor 1 (Q13285 whole entry): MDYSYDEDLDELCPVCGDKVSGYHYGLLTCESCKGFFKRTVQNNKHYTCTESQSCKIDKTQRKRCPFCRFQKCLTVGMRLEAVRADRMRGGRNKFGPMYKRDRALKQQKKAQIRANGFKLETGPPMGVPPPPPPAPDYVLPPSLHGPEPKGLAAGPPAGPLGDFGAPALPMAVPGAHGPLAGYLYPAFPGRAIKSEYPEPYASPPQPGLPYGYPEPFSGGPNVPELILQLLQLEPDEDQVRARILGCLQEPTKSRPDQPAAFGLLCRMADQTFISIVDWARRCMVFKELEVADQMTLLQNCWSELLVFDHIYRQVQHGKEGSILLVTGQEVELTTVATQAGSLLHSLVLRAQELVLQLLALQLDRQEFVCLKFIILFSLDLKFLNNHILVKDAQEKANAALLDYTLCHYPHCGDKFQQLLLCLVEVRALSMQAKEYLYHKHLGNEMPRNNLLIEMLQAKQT

Consider `C[C@H](CO)N1C[C@H](C)[C@H](CN(C)Cc2ccc(C(=O)Nc3ccccc3N)cc2)Oc2ccc(NC(=O)Nc3ccc4c(c3)OCO4)cc2CC1=O`, for which, in test [1], the concentration at half-maximal activity (AC50) was 2.08 µM (active).

Consider `C#CCN1C(=O)S/C(=C\c2ccc(-c3ccc(Cl)c(C(=O)O)c3)o2)C1=O`, for which the 50% effective concentration (EC50) in [2] was 2.41 µM (active); in [3] it was 5.9 µM (active). In addition, the IC50 in [4] is 29.6 µM (active); in test [5], 7.59 µM (active); in test [6], 11.6 µM (active); in test [7], 14.9 µM (active).

As to `O=C(COC(=O)CCN1C(=O)C2CC=CCC2C1=O)NCCc1ccccc1` (stereo not drawn), the IC50 in test [8] is 38 µM (inactive); in [9], 25.8 µM (inactive); in [10], 35.9 µM (inactive).

Regarding `COc1cccc(-c2nc(=S)c3c(o2)CCCC3)c1`, the IC50 in [4] was 24.9 µM (active); in [5], 8.32 µM (active); in [6], 20.5 µM (active); in [7], 27.4 µM (active); in [11], > 66 µM (inactive); in [12] it was > 66 µM (inactive).

Turning to `C[C@@H]1CN([C@H](C)CO)C(=O)c2cccc(N(C)C)c2O[C@H]1CN(C)Cc1ccc(Oc2ccccc2)cc1`, the concentration at half-maximal activity (AC50) in test [1] was 2.51 µM (active).

`Cc1ccc(-n2nnnc2-c2cnn(-c3ccc(F)cc3)c2C(F)(F)F)cc1`: in test [13], the AC50 is 33.9 µM (active).

Take `CC(C)Oc1cccc(-c2cc(C(=O)NN3CCOCC3)c3ccccc3n2)c1`: the IC50 in test [8] was 35.9 µM (inactive); in test [9] it was 15.9 µM (inactive); in [10], 35.9 µM (inactive).

For `Cc1ccc(S(=O)(=O)Nc2cccc3c2O[C@H](CN(C)Cc2ccc(Cl)c(Cl)c2)[C@H](C)CN([C@H](C)CO)C3=O)cc1`, the values for the AC50 in test [14], in [15] and in test [13] were < 0.26 µM (active), 0.308 µM (active) and 1.37 µM (active), respectively.

Take `COc1ccc(NC(=O)Nc2ccc3c(c2)C(=O)N([C@H](C)CO)C[C@H](C)[C@H](CN(C)Cc2ccc(Cl)c(Cl)c2)OCCCC[C@@H](C)O3)cc1`: in [1], the half-maximal activity concentration (AC50) was 7.11 µM (active).

`CCCOc1ccc(NC(=O)CC2C(=O)N(C)C(=S)N2Cc2ccc3c(c2)OCO3)cc1` (stereo not drawn): the IC50 is 1.67 µM (active) in test [8], 2.03 µM (active) in [9] and 35.9 µM (inactive) in [10].

On to `COc1cccc(S(=O)(=O)N(C)C[C@H]2Oc3cc(C#CCC(C)C)ccc3S(=O)(=O)N([C@H](C)CO)C[C@H]2C)c1`, for which the concentration at half-maximal activity (AC50) in test [14] is 34.5 µM (active); in test [13], 17.9 µM (active).

In the case of `COc1ccc(CCNC(=O)CN2C(=O)NC3(CCCCC3C)C2=O)cc1` (stereo not drawn), the IC50 in test [8] was 1.31 µM (active); in [9], 4.78 µM (active); in [10] it was 35.9 µM (inactive).

With `C[C@@H]1CCCCO[C@@H](CN(C)CC2CCCCC2)[C@@H](C)CN([C@H](C)CO)C(=O)c2cc(NC(=O)Nc3ccccc3)ccc2O1`, the concentration at half-maximal activity (AC50) in test [1] was 2.55 µM (active).

Turning to `COc1ccc(CCNC(=O)CSc2nn3c(=O)c(C)nnc3s2)cc1OC`, the figures for the IC50 in [8], in test [9] and in test [10] were 35.9 µM (inactive), 12 µM (inactive) and 35.9 µM (inactive), respectively.

For the compound `Cc1cc(C(=O)Nc2ccc(N3CCCC3)c(Cl)c2)ccc1[N+](=O)[O-]`, the IC50 in test [16] is 2.99 µM (not active); in test [4], 28.2 µM (active); in test [5], 5.48 µM (active); in [6], > 100 µM (inactive); in test [7] it was > 100 µM (inactive).

On to `C[C@H](CO)N1C[C@H](C)[C@@H](CN(C)CC2CCCCC2)Oc2c(NC(=O)c3nc4ccccc4s3)cccc2C1=O`, for which the concentration at half-maximal activity (AC50) in [1] was 1.21 µM (active).
